From US20030220310A1, “Epoxy-steroidal aldosterone antagonist and calcium channel blocker combination therapy for treatment of congestive heart failure” (priority 2003, published 2003)
“And” between values parts separate entries of the source, which are not always exact repeats. Equal entries are not always repeated.

Columns and labels:
[1] = test system: rats made hypertensive by renal artery clip; test: Assay C: Hypertensive Rat Model; format: in vivo; details: combination of calcium channel blocker and epoxymexrenone versus either component alone, after 12 to 24 weeks
Experimental: Assay “C”: Hypertensive Rat Model Male rats are made hypertensive by placing a silver clip with an aperture of 240 microns on the left renal artery, leaving the contralateral kidney untouched. Sham controls undergo the same procedure but without attachment of the clip. One week prior to the surgery, animals to be made hypertensive are divided into separate groups and drug treatment is begun. Groups of animals are administered vehicle, calcium channel blocker alone, epoxymexrenone alone, and combinations of calcium channel blocker and epoxymexrenone at various doses: [table] After 12 to 24 weeks, systolic and diastolic blood pressure, left ventricular end diastolic pressure, left ventricular dP/dt, and heart rate are evaluated. The hearts are removed, weighed, measured and fixed in formalin. Collagen content of heart sections are evaluated using computerized image analysis of picrosirius stained sections.

[2] = X-ray powder diffraction, Form H content of dried solids; format: physicochemical; details: methyl ethyl ketone solvate dried at 100° C.
Experimental: For the Siemens D500 powder diffractometer, the raw data was measured for 2q values from 2 to 50, with steps of 0.020 and step periods of two seconds. For the Inel Multipurpose Diffractometer, samples were placed in an aluminum sample holder and raw data was collected for 30 minutes at all two theta values simultaneously.
The weight percent of the diepoxide or 11,12-epoxide in each sample is given in Tables X-6A and X-6B, respectively. A micro-flea magnetic stirrer was added to each scintillation vial along with 1 mL of methyl ethyl ketone. The vials were loosely capped and the solid dissolved by heating to reflux on a hot plate with magnetic stirring. Once the solids were dissolved, the solutions were allowed to cool to room temperature on the hot plate. Magnetic stirring was maintained during the cooling period. After the solutions reached room temperature, the solids were collected by vacuum filtration and immediately analyzed by X-ray powder diffraction (XPRD). The solids were then placed in a 100° C. oven and dried for one hour at ambient pressure. The dried solids were analyzed by XPRD for Form H content by monitoring the area of the Form H diffraction peak at about 12.1 degrees two theta. All XPRD diffraction patterns were recorded using an Inel Multipurpose Diffractometer.
The area for the Form H diffraction peak at about 12.1 degrees two theta and the estimated Form H content for each sample are given in Table X-6C below.

[3] = as above; format: physicochemical; details: for Form H Peak Area 12° Two Theta Peak / Estimated Weight Percent of Form H: methyl ethyl ketone solvate dried at 100° C.
[4] = test system: rats with ligated left anterior descending coronary artery; test: Assay D: Myocardial Infarction Rat Model; format: in vivo; details: combination of calcium channel blocker and epoxymexrenone versus either component alone, after six weeks
Experimental: Assay “D”: Myocardial Infarction Rat Model: Male rats are anesthetized and the heart is exteriorized following a left sided thoracotomy. The left anterior descending coronary artery is ligated with a suture. The thorax is closed and the animal recovers. Sham animals have the suture passed through without ligation. One week prior to the surgery, animals to undergo infarction are divided into separate groups and drug treatment is begun. Groups of animals are administered vehicle, calcium channel blocker alone, epoxymexrenone alone, and combinations of calcium channel blocker and epoxymexrenone, at various doses, as follow: [table] After six weeks, systolic and diastolic blood pressure, left ventricular end diastolic pressure, left ventricular dP/dt, and heart rate are evaluated. The hearts are removed, weighed, measured and fixed in formalin. Collagen content of heart sections are evaluated using computerized imaged image analysis of picrosirius stained sections.

[5] = Differential scanning calorimetry, melting/decomposition; format: physicochemical; details: cooling rate (0) 1.5° C./min.; endpoint (0) 25° C.; 100.8% eplerenone seeded with Form H; analyzed by DSC
Description: Melting/decomposition ranges were defined from the extrapolated onset to the maximum of the melting/decomposition endotherm. […] One or more endothermal events at lower temperatures were associated with enthalpy changes that occurred as solvent was lost from the solvate crystal lattice. The highest temperature endotherm or endotherms were associated with the melting/decomposition of Form L or Form H eplerenone.

[6] = 0% 11,12-epoxide in starting eplerenone mixture
[7] = 1% 11,12-epoxide in starting eplerenone mixture
[8] = 5% 11,12-epoxide in starting eplerenone mixture
[9] = 5% diepoxide in starting eplerenone mixture
[10] = 3% diepoxide in starting eplerenone mixture
[11] = 10% 11,12-epoxide in starting eplerenone mixture

Compound: COC(=O)[C@@H]1CC2=CC(=O)CC[C@]2(C)C23O[C@@H]2C[C@@]2(C)[C@@H](CC[C@@]24CCC(=O)O4)[C@H]13 (stereo partly drawn) [eplerenone, Pregn-4-ene-7,21-dicarboxylic acid, 9,11-epoxy-17-hydroxy-3-oxo-,γ-lactone, methyl ester, (7α,11α,17β)-]
- cardiac performance [1]: improvements in cardiac performance
- Estimated Weight Percent of Form H [2, 6]: None Detected
- Form H Peak Area 12° Two Theta Peak [2, 6]: None Detected
- Estimated Weight Percent of Form H [2, 7]: None Detected
- Estimated Weight Percent of Form H [2, 8]: None Detected
- Form H Peak Area 12° Two Theta Peak [2, 8]: None Detected
- Estimated Weight Percent of Form H [2, 9]: 30%
- Form H Peak Area 12° Two Theta Peak [3, 7]: None Detected
- Estimated Weight Percent of Form H [3, 10]: 10%
- Form H Peak Area 12° Two Theta Peak [3, 10]: 1168
- Form H Peak Area 12° Two Theta Peak [3, 9]: 4175
- Estimated Weight Percent of Form H [3, 11]: 10-15%
- Form H Peak Area 12° Two Theta Peak [3, 11]: 1541
- Weight Percent Form H ([3]; Cooling Rate High, End Point High, Impurity Level High, High Fluid Bed drying): 25%
- Weight Percent Form H ([3]; Cooling Rate High, End Point High, Impurity Level High, Low Fluid Bed drying): 4.7%
- Weight Percent Form H ([3]; Cooling Rate High, End Point High, Impurity Level High, Vacuum Oven drying): 29%
- Weight Percent Form H ([3]; Cooling Rate Low, End Point Low, Impurity Level Low, Low Fluid Bed drying): 5.5%
- Weight Percent Form H (XPRD) ([3]; cooling rate (0) 1.5° C./min., endpoint (0) 25° C., 100.8% eplerenone seeded with Form H, analyzed by XPRD): 77 Weight Percent
- Weight Percent Form H (XPRD) ([3]; cooling rate (0) 1.5° C./min., endpoint (0) 25° C., impurity level (0) = 100.8% purity eplerenone starting material as printed, three runs): 5 Weight Percent and <3% Weight Percent
- Weight Percent Form H (XPRD) ([3]; cooling rate (+) 3° C./min., endpoint (+) 45° C., impurity level (+) 89.3% purity eplerenone starting material): 29 Weight Percent
- Weight Percent Form H (XPRD) ([3]; cooling rate (+) 3° C./min., endpoint (−) 5° C., impurity level (+) 89.3% purity eplerenone starting material): 9 Weight Percent
- Weight Percent Form H (XPRD) ([3]; cooling rate (−) 0.1° C./min., endpoint (+) 45° C., impurity level (+) 89.3% purity eplerenone starting material): 31 Weight Percent
- cardiac performance [4]: improvements in cardiac performance
- Weight Percent Form H (DSC) [5]: 100 Weight Percent
